Our source for the IC50 and Ki values is patent US9079866B2, “Flap modulators” (JANSSEN PHARMACEUTICA NV, priority 2013, dated 2015).

The IC50 is the concentration that gives 50% inhibition. The Ki is the equilibrium dissociation constant of an inhibitor or competing ligand from its target.

SMILES strings stand for the structures. Structures can show the parent of a compound that is named as a salt. Where two headings read alike, the source gives them in different places.

The subject of experiment [1] is leukotriene pathway in human whole blood (LTB4 levels). As to the kind of experiment: Human whole blood assay (A23187-stimulated LTB4). The conditions noted are these: Homo sapiens, human whole blood diluted 1:1 in RPMI, A23187-stimulated LTB4; read-out: LTB4 IC50 1:1. It counts as cell-based. In outline:
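Heparinised human whole blood, diluted 1:1 in RPMI, was pre-incubated with test compounds for 15 min at 37° Celsius, then stimulated with A23187 (7 μg/mL) for 30 min at 37° Celsius. Plasma LTB4 was measured by immunoassay kit; IC50 from 4-parameter fit; single replicate, at least one healthy donor.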

The target in the next experiment is human FLAP (Homo sapiens (Human), UniProt P20292). The experiment is described as follows: FLAP binding assay (HTRF format). A digest of the protocol:
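Reported data take the mean of two different plates carrying duplicate samples and use the HTRF ratio as the measured signal.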
A general note: In TR-FRET formats the signal depends on donor and acceptor labels being close together.

Where [2] appears, read: human FLAP wild type, HTRF format, average of two plates, duplicates.
Where [3] appears, read: read-out: FLAP Binding wild type HTRF Ki.

Sequence of human FLAP (P20292 whole entry): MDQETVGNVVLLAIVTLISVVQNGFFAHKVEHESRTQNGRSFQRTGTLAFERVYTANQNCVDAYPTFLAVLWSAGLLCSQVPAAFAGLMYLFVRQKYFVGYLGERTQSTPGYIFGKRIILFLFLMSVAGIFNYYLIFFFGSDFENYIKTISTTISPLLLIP

`Cc1cccc(-c2ccc(-c3cnc(N)nc3)c(F)c2)c1S(=O)(=O)NC(C)(C)C` [Example 287, 4′-(2-Aminopyrimidin-5-yl)-N-tert-butyl-3′-fluoro-3-methylbiphenyl-2-sulfonamide trifluoroacetic acid salt]: the IC50 in experiment [1] amounted to 74 nM. The same compound returned a Ki at human FLAP (setting [2]) of 9 nM.
For `CNS(=O)(=O)c1ccccc1-c1ccc(-c2cnc(N)nc2)c(F)c1` [Example 288, 4′-(2-Aminopyrimidin-5-yl)-3′-fluoro-N-methylbiphenyl-2-sulfonamide trifluoroacetic acid salt] the same measures were 420 nM and 103 nM.
As for `C[C@H](CO)NS(=O)(=O)c1ccccc1-c1ccc(-c2cnc(N)nc2)c(F)c1` [Example 289, 4′-(2-Aminopyrimidin-5-yl)-3′-fluoro-N-[(1R)-2-hydroxy-1-methylethyl]biphenyl-2-sulfonamide], in experiment [1], the IC50 came out at 36 nM. This compound returned a Ki at human FLAP (setting [2]) of 22 nM.
Turning to `Nc1ncc(-c2ccc(-c3ccccc3S(=O)(=O)N[C@H](c3ccccc3)C(F)(F)F)cc2F)cn1` [Example 291, 4′-(2-Aminopyrimidin-5-yl)-3′-fluoro-N-[(1R)-2,2,2-trifluoro-1-phenylethyl]biphenyl-2-sulfonamide trifluoroacetic acid salt], in experiment [1], the IC50 was found to be 421 nM. In addition, the Ki at human FLAP (setting [3]) came out at 7 nM.
Turning to `Nc1ncc(-c2ccc(-c3ccccc3S(=O)(=O)N[C@@H](c3ccccc3)C(F)(F)F)cc2F)cn1` [Example 292, 4′-(2-Aminopyrimidin-5-yl)-3′-fluoro-N-[(1S)-2,2,2-trifluoro-1-phenylethyl]biphenyl-2-sulfonamide trifluoroacetic acid salt], the IC50 in experiment [1] worked out at 1030 nM. For the same compound, the Ki at human FLAP (setting [3]) was found to be 12 nM.
Regarding `CC(C)CNS(=O)(=O)c1ccccc1-c1ccc(-c2cnc(N)nc2)c(F)c1` [Example 294, 4′-(2-Aminopyrimidin-5-yl)-3′-fluoro-N-(2-methylpropyl)biphenyl-2-sulfonamide trifluoroacetic acid salt], the IC50 in experiment [1] stood at 248 nM. The same compound came in with a Ki at human FLAP (setting [2]) of 2 nM.
Take `CCNS(=O)(=O)c1ccccc1-c1ccc(-c2cnc(N)nc2)c(F)c1` [Example 295, 4′-(2-Aminopyrimidin-5-yl)-N-ethyl-3′-fluorobiphenyl-2-sulfonamide trifluoroacetic acid salt]: the IC50 in experiment [1] came out at 110 nM. In addition, the Ki on human FLAP (setting [2]) is 25 nM.
`CC(C)(NS(=O)(=O)c1ccccc1-c1ccc(-c2cnc(N)nc2)c(F)c1)C(F)(F)F` [Example 296, 4′-(2-Aminopyrimidin-5-yl)-3′-fluoro-N-(2,2,2-trifluoro-1,1-dimethylethyl)biphenyl-2-sulfonamide trifluoroacetic acid salt]: the IC50 in experiment [1] is 66 nM. The compound also registered a Ki at human FLAP (setting [2]) of 5 nM.
With `C[C@H](NS(=O)(=O)c1ccccc1-c1ccc(-c2cnc(N)nc2)c(F)c1)C(F)(F)F` [Example 297, 4′-(2-Aminopyrimidin-5-yl)-3′-fluoro-N-[(1S)-2,2,2-trifluoro-1-methylethyl]biphenyl-2-sulfonamide trifluoroacetic acid salt], the IC50 in experiment [1] was 45 nM. Further, the Ki on human FLAP (setting [3]) is 5 nM.
With `CCN(CC)S(=O)(=O)c1ccccc1-c1ccc(-c2cnc(N)nc2)c(F)c1` [Example 300, 4′-(2-Aminopyrimidin-5-yl)-N,N-diethyl-3′-fluorobiphenyl-2-sulfonamide trifluoroacetic acid salt], the IC50 in experiment [1] worked out at 120 nM. At human FLAP (setting [2]), this compound returned a Ki of 13 nM.
For the compound `Nc1ncc(-c2ccc(-c3ccccc3S(=O)(=O)N3CCCCC3)cc2F)cn1` [Example 301, 5-[3-Fluoro-2′-(piperidin-1-ylsulfonyl)biphenyl-4-yl]pyrimidin-2-amine trifluoroacetic acid salt], in experiment [1], the IC50 was 204 nM. For the same compound, the Ki on human FLAP (setting [2]) was found to be 13 nM.
On the same counts, the results for `CC(C)(C)NS(=O)(=O)c1ccccc1-c1ccc(-c2cnc(N)nc2)c(F)c1` [Example 305, 4′-(2-Aminopyrimidin-5-yl)-N-(tert-butyl)-3′-fluoro-[1,1′-biphenyl]-2-sulfonamide trifluoroacetic acid salt] are 78 nM and 2 nM.
For `C[C@H](NS(=O)(=O)c1ccccc1-c1ccc(-c2cnc(N)nc2)c(F)c1)C(=O)OC(C)(C)C` [Example 307, tert-Butyl N-{[4′-(2-aminopyrimidin-5-yl)-3′-fluorobiphenyl-2-yl]sulfonyl}-L-alaninate] the same measures were 416 nM and 4 nM.
Take `Nc1ncc(-c2ccc(-c3ccccc3NS(=O)(=O)N3CCCC3)cc2F)cn1` [Example 309, N-[4′-(2-Aminopyrimidin-5-yl)-3′-fluorobiphenyl-2-yl]pyrrolidine-1-sulfonamide]: the IC50 in experiment [1] turned out to be 1780 nM. Also, the affinity on human FLAP (setting [2]), expressed as Ki, was 214 nM.
In the case of `Nc1ncc(-c2ccc(-c3ccccc3S(=O)(=O)N3CC4(COC4)C3)cc2F)cn1` [Example 312, 5-(2′-(2-Oxa-6-azaspiro[3.3]heptan-6-ylsulfonyl)-3-fluoro-[1,1′-biphenyl]-4-yl)pyrimidin-2-amine], in experiment [1], the IC50 is 376 nM. Also, the Ki on human FLAP (setting [2]) stood at 262 nM.
On to `Nc1ncc(-c2ccc(-c3ccccc3S(=O)(=O)N3CC4(C3)CS(=O)(=O)C4)cc2F)cn1` [Example 313, 6-((4′-(2-Aminopyrimidin-5-yl)-3′-fluoro-[1,1′-biphenyl]-2-yl)sulfonyl)-2-thia-6-azaspiro[3.3]heptane 2,2-dioxide], for which the IC50 in experiment [1] is 574 nM. This compound also registered a Ki on human FLAP (setting [2]) of 397 nM.
`Nc1ncc(-c2ccc(-c3ccccc3S(=O)(=O)N3CC(O)(C(F)(F)F)C3)cc2F)cn1` [Example 315, 1-((4′-(2-Aminopyrimidin-5-yl)-3′-fluoro-[1,1′-biphenyl]-2-yl)sulfonyl)-3-(trifluoromethyl)azetidin-3-ol]: in experiment [1], the IC50 was 27 nM. Moreover, the Ki at human FLAP (setting [3]) came out at 1 nM.
With `Nc1ncc(-c2ccc(-c3ccccc3S(=O)(=O)Cc3nc4ccccc4c(=O)[nH]3)cc2F)cn1` [Example 317, 2-(((4′-(2-Aminopyrimidin-5-yl)-3′-fluoro-[1,1′-biphenyl]-2-yl)sulfonyl)methyl)quinazolin-4(3H)-one], in experiment [1], the IC50 was over 10000 nM. On human FLAP (setting [2]), the affinity, expressed as Ki, was 335 nM.
As to `Nc1ncc(-c2ccc(-c3ccccc3S(=O)(=O)CCCn3c(=O)[nH]c4ccccc43)cc2F)cn1` [Example 318, 1-(3-((4′-(2-Aminopyrimidin-5-yl)-3′-fluoro-[1,1′-biphenyl]-2-yl)sulfonyl)propyl)-1H-benzo[d]imidazol-2(3H)-one], the IC50 in experiment [1] is 2000 nM. In addition, on human FLAP (setting [2]), affinity was put at a Ki of 689 nM.
Take `Nc1ncc(-c2ccc(-c3ccccc3S(=O)(=O)CCCS(=O)(=O)C3CCCCC3)cc2F)cn1` [Example 319, 5-(2′-{[3-(Cyclohexylsulfonyl)propyl]sulfonyl}-3-fluorobiphenyl-4-yl)pyrimidin-2-amine]: the IC50 in experiment [1] worked out at 3260 nM. For the same compound, the affinity at human FLAP (setting [2]) corresponds to a Ki of 204 nM.
With `Cn1c(S(=O)(=O)c2ccccc2-c2ccc(-c3cnc(N)nc3)c(F)c2)nc2ccccc21` [Example 320, 5-{3-Fluoro-2′-[(1-methyl-1H-benzimidazol-2-yl)sulfonyl]biphenyl-4-yl}pyrimidin-2-amine], the IC50 in experiment [1] came to 1080 nM. On human FLAP (setting [2]), this compound returned a Ki of 129 nM.
Consider `Nc1ncc(-c2ccc(-c3ccc(C(F)(F)F)cc3S(N)(=O)=O)cc2F)cn1` [Example 322, 4′-(2-Aminopyrimidin-5-yl)-3′-fluoro-4-(trifluoromethyl)biphenyl-2-sulfonamide], for which the IC50 in experiment [1] stood at 138 nM. Moreover, the affinity on human FLAP (setting [2]) corresponds to a Ki of 32 nM.
